Data from patent US8658668B2, “PI3 kinase/mTOR dual inhibitor” (Eli Lilly and Company, priority 2011, dated 2014).

Tests used:
AKT1(pT308) = test: AlphaScreen SureFire p-AKT (Thr308) in U87MG cells; format: cell-based; settings: Homo sapiens, U-87 MG, 1 h, n = 4, read-out: AKT1(pT308) Absolute IC50
Protocol: This homogeneous assay format uses immuno-sandwich capture of the phosphorylated analyte and then detection with antibody-coated Alphascreen beads to generate an amplified signal.
Maintain U87MG cells in U87MG growth medium consisting of DMEM (GIBCO 11965-092) supplemented with 10% fetal bovine serum (FBS, GIBCO, 10091-141), 1% nonessential amino acids (GIBCO, 11140-050) and 1% sodium pyruvate (GIBCO, 11360-070). Harvest cells using standard cell culture procedures and then count using Vi-Cell. Plate 100 μL of U87MG cells in growth medium (50,000 cells/well) into Costar #3596 96 well plates and incubate overnight at 37° C., 5% CO2.
Incubate for one h at 37° C., then remove the medium and add 50 μL of 1× SureFire Lysis Buffer (TGR Biosciences SureFire® Kit component) to each well and incubate at room temperature for 10 min with gentle shaking Transfer 6 μL lysate and 10 μL reaction mixture (60 parts reaction buffer/10 parts activation buffer/1 part each of donor and acceptor beads, Perkin Elmer, 6760617R) to a 384 well proxiplate (Perkin Elmer, 6006280) for the p-p70S6 kinase (Thr389) and p-AKT(Ser473) assays. Seal the plate and incubate at RT for 4 h. […] Read the plates on a Perkin Elmer EnVision equipped with a TurboModule using standard AlphaScreen® settings (Ex680 nm and Em520-620 nm). […]

[1] = system: HNXF 536 human tumor xenograft cells; test: Oncotest tumor clonogenic assay, HNXF 536; format: cell-based; settings: colony formation, Head and Neck HNXF 536, squamous epithelium carcinoma, wd, read-out: Absolute IC50
[2] = system: LXFE 211 human tumor xenograft cells; test: Oncotest tumor clonogenic assay, LXFE 211; format: cell-based; settings: colony formation, NSCLC LXFE 211, squamous cell carcinoma, ud, read-out: Absolute IC50
[3] = system: PRXF DU145 human tumor xenograft cells; test: Oncotest tumor clonogenic assay, PRXF DU145; format: cell-based; settings: DU-145, colony formation, Prostate PRXF DU145, adeno carcinoma, ud, read-out: Absolute IC50
[4] = system: RXF 393 human tumor xenograft cells; test: Oncotest tumor clonogenic assay, RXF 393; format: cell-based; settings: colony formation, Renal RXF 393, hypernephroid carcinoma, pd, read-out: Absolute IC50
[5] = system: SXF 1301 human tumor xenograft cells; test: Oncotest tumor clonogenic assay, SXF 1301; format: cell-based; settings: colony formation, Sarcoma SXF 1301, malignant rhabdomyosarcoma, ud, read-out: Absolute IC50
[6] = system: human renal carcinoma cells 786-O; test: Xenograft tumor model, 786-O; format: in vivo, mouse; settings: oral gavage
Protocol: Expand human glioblastoma cells U87MG and human renal carcinoma cells 786-O, in culture, harvest and inject subcutaneously onto the rear flank of athymic nude mice. Expand human non-small cell lung cancer cells NCI-H1975 in culture, harvest and inject subcutaneously onto the rear flank of CD-1 nu/nu mice. Prepare test compound in an appropriate vehicle and administer by oral gavage when tumors are established (7-21 days after implant). Tumor response is determined by tumor volume measurement performed twice a week during the course of treatment. Body weight is taken as a general measurement of toxicity.

pS240/244 S6RP = test: In vivo target inhibition in U87MG tumors, pS240/244 S6RP; settings: Mus musculus, U-87 MG; for inhibition at 0.5 mg/kg: 0.5 mg/kg oral; for inhibition at 1.5 mg/kg: 1.5 mg/kg oral; for inhibition at 3 mg/kg: 3 mg/kg oral; for inhibition at 6 mg/kg: 6 mg/kg oral; for inhibition at 10 mg/kg: 10 mg/kg oral; for inhibition at 12 mg/kg: 12 mg/kg oral
Protocol: Implant U87MG human glioblastoma cells (5×10^6) subcutaneously into the flank of athymic nude mice in 0.2 mL of matrigel. Ten days post-implantation, dose mice orally according to a time course, single dose/single time point, or dose response protocol for the determination of TMED50 (threshold minimum effective dose). Flash freeze tumors at harvest and collect blood for the determination of parent compound plasma exposure and the calculation of TMEC50 (threshold minimum effective concentration) in the case of dose response studies. Homogenize tumors in 500 μL of XY Lysis Buffer (10 μg/mL Leupeptin, 10 μg/mL Trypsin-Chymotrypsin Inhibitor, 10 μg/mL Tosyl phenyl-alanyl chloromethyl ketone, 10 μg/mL Aprotinin, 60 mM Beta-Glycerol Phosphate, 1% Triton X100, 25 mM Tris pH 7.5, 2.5 mM Pyrophosphate, 150 mM NaCl, 2 mM p-tosyl-L-arginine methyl ester, 15 mM para-nitrophenyl phosphate, 5 mM benzamidine, 1 mM sodium vanadate, 10 mM sodium fluoride, 50 μg/mL phenyl-methane sulfonyl fluoride, 1 mM 1,4-dithiothreitol (DTT), 15 mM EDTA pH 8.0, 5 mM EGTA pH 8.0, 1 μM Microcystin, 1 μM Okadaic Acid, and 1 Roche Complete protease inhibitor mini-tablet per 10 mL) using RNase Free Pellet Pestle (Kimble-Kontes). Aliquot lysates and either assay immediately or store at −80° C. for later testing. Use the multiplex format of Meso Scale Discovery (Gaithersburg, Md.) ELISA technology and measure in vivo target inhibition of PI3K and mTOR to assess effects on phosphorylation of the threonine 308 site of AKT, a downstream effector of PI3K; phosphorylation on the threonine 389 site of p70 S6K and on the serine 240/244 site of S6RP, downstream effectors of mTORC1; phosphorylation of the serine 473 site of AKT, a downstream effector of mTORC2. Add 20 μg of lysate to carbon electrode containing 96-well plates pre-spotted with the appropriate capture antibodies. Probe the protein of interest using a ruthenium labeled detection antibody. Pass current over the electrode in the presence of read buffer containing the co-reactant TPA, and quantitate and record the light generated by electro-chemiluminescence with the MSD Sector 6000 instrument. Calculate percent inhibitions relative to the vehicle control group and perform ANOVA analysis using the JMP software package for the determination of statistical significance.

IC50 (AKT1(pT308)): 106 nM
IC50 [1]: 55 nM
IC50 [2]: 108 nM
IC50 [3]: 269 nM
IC50 [4]: 44 nM
IC50 [5]: > 200 nM
Structure (SMILES): CO[C@@H](C)Cn1c(=O)n(C)c2cnc3ccc(-c4cncc(C(C)(C)O)c4)cc3c21 [Example 1, 8-[5-(1-Hydroxy-1-methylethyl)pyridin-3-yl]-1-[(2S)-2-methoxypropyl]-3-methyl-1,3-dihydro-2H-imidazo[4,5-c]quinolin-2-one]
% TGI ([6]; 3 mg/kg BID): 33.9%
% TGI ([6]; 6 mg/kg BID): 56.9%
% TGI ([6]; 10 mg/kg BID): 70.2%
inhibition at 0.5 mg/kg (pS240/244 S6RP; 0.5 hr post dose): 9%
inhibition at 0.5 mg/kg (pS240/244 S6RP; 4 hr post dose): 5%
inhibition at 1.5 mg/kg (pS240/244 S6RP; 0.5 hr post dose): 4%
inhibition at 1.5 mg/kg (pS240/244 S6RP; 4 hr post dose): 12%
inhibition at 3 mg/kg (pS240/244 S6RP; 0.25 hr post dose): -11%
inhibition at 3 mg/kg (pS240/244 S6RP; 0.5 hr post dose): 9%
inhibition at 3 mg/kg (pS240/244 S6RP; 1 hr post dose): 51%
inhibition at 3 mg/kg (pS240/244 S6RP; 3 hr post dose): 64%
inhibition at 3 mg/kg (pS240/244 S6RP; 4 hr post dose): 37%
inhibition at 6 mg/kg (pS240/244 S6RP; 0.25 hr post dose): 7%
inhibition at 6 mg/kg (pS240/244 S6RP; 0.5 hr post dose): 26%
inhibition at 6 mg/kg (pS240/244 S6RP; 1 hr post dose): 66%
inhibition at 6 mg/kg (pS240/244 S6RP; 2 hr post dose): 83%
inhibition at 6 mg/kg (pS240/244 S6RP; 4 hr post dose): 58%
inhibition at 6 mg/kg (pS240/244 S6RP; 6 hr post dose): 55%
inhibition at 6 mg/kg (pS240/244 S6RP; 12 hr post dose): -35%
inhibition at 10 mg/kg (pS240/244 S6RP; 0.5 hr post dose): -4%
inhibition at 10 mg/kg (pS240/244 S6RP; 1 hr post dose): 69%
inhibition at 10 mg/kg (pS240/244 S6RP; 2 hr post dose): 89%
inhibition at 10 mg/kg (pS240/244 S6RP; 4 hr post dose): 95%
inhibition at 10 mg/kg (pS240/244 S6RP; 8 hr post dose): 16%
inhibition at 12 mg/kg (pS240/244 S6RP; 0.5 hr post dose): 55%
inhibition at 12 mg/kg (pS240/244 S6RP; 4 hr post dose): 97%
